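Test compounds were applied to cells in 96-well plates for 48 hours at 5 doses. GI50 = concentration required for 50% inhibition of growth.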 Activity calls are given as the source filed them. Rule as the data show it: active = GI50 up to about 1.1 µM and inactive = higher.

Experiment in all cases: NCI anticancer screen, dose series, 48 h
Test [1] relates to A498.
The test system of test [2] is CCRF-CEM.
Test [3] relates to COLO 205.
Test [4] concerns EKVX.
Test [5] deals with HCC 2998.
The subject of test [6] is LOX IMVI.
Test [7] relates to MCF7.
Test [8] deals with MDA-MB-435.
For test [9], the system named is MOLT-4.
For test [10], the system named is NCI-H522.
Test [11] relates to NCI/ADR-RES.
For test [12], the system named is OVCAR-3.
For test [13], the system named is OVCAR-5.
Test [14] concerns OVCAR-8.
Test [15] deals with PC-3.
The subject of test [16] is RPMI-8226.
Test [17] relates to SF-268.
Test [18] has as its system SN12C.
Test [19] deals with SNB-19.
The subject of test [20] is U-251.

Take `CCC/N=C/c1c(O)c(O)c(C(C)C)c2cc(C)c(-c3c(C)cc4c(C(C)C)c(O)c(O)c(/C=N/CCC)c4c3O)c(O)c12`: the GI50 is 11.2 µM (inactive) in test [1]; 1.54 µM (inactive) in [2]; 5.25 µM (inactive) in test [3]; 7.19 µM (inactive) in test [4]; 8.61 µM (inactive) in test [5]; 6.04 µM (inactive) in test [6]. Further, the GI50 in [7] was 14.7 µM (inactive); in [8], 10.7 µM (inactive); in test [9], 3.41 µM (inactive); in test [10] it was 1.53 µM (inactive); in test [11] it was 30.1 µM (inactive); in [12], 3.88 µM (inactive). The GI50 in test [13] is 10 µM (inactive); in test [14] it was 6.46 µM (inactive); in test [15], 2.48 µM (inactive); in test [16] it was 9.16 µM (inactive); in [17] it was 6.92 µM (inactive); in test [18], 10.4 µM (inactive). The GI50 in test [19] was 6.47 µM (inactive); in [20], 2.07 µM (inactive).

With `CN(C)/C=N/S(=O)(=O)c1nn2c(C=O)c(-c3ccc(Cl)cc3)nc2s1`, the GI50 was 16.2 µM (inactive) in [1]; 0.228 µM (active) in test [2]; 1.28 µM (inactive) in test [3]; 3.28 µM (inactive) in [4]; 5.25 µM (inactive) in test [5]; 1.25 µM (inactive) in [6]. Also, the GI50 in [7] is 0.897 µM (active); in [8] it was 2.16 µM (inactive); in test [9] it was 0.52 µM (active); in test [10], 0.557 µM (active); in test [11], 2.22 µM (inactive); in test [12], 1.49 µM (inactive). The GI50 in test [13] is 1.75 µM (inactive); in test [14], 1.31 µM (inactive); in test [15], 2.46 µM (inactive); in [16], 0.785 µM (active); in test [17] it was 3.46 µM (inactive); in [18] it was 2.23 µM (inactive). Also, the results for the GI50 in [19] and in test [20] were 14.3 µM (inactive) and 2.95 µM (inactive), respectively.

For `Clc1ccc(CCNC2(c3cc4ccccc4s3)CCCCC2)cc1Cl`, the GI50 is 19.1 µM (inactive) in test [1]; 12.9 µM (inactive) in test [2]; 17.8 µM (inactive) in [3]; 26.1 µM (inactive) in test [4]; 7.74 µM (inactive) in [5]; 18.5 µM (inactive) in [6]. The GI50 was 17 µM (inactive) in [7]; 41.4 µM (inactive) in [8]; 13.8 µM (inactive) in [9]; 17.5 µM (inactive) in [10]; 24 µM (inactive) in test [11]; 20.6 µM (inactive) in test [12]. Besides, the GI50 was 19.5 µM (inactive) in test [13]; 31.9 µM (inactive) in test [14]; 43.2 µM (inactive) in test [15]; 11.5 µM (inactive) in test [16]; 53 µM (inactive) in [17]; 33.7 µM (inactive) in test [18]. The GI50 in [19] was 30.5 µM (inactive); in test [20], 23.9 µM (inactive).

`COc1ccc(/N=C/C=C/Nc2ccc(OC)cc2)cc1`: the GI50 in test [1] was 14 µM (inactive); in test [2], 6.28 µM (inactive); in [3], 3.99 µM (inactive); in test [4], 15.7 µM (inactive); in test [5] it was 8.45 µM (inactive); in test [6] it was 2.44 µM (inactive). In addition, the GI50 in test [7] was 4.75 µM (inactive); in test [8] it was 9.27 µM (inactive); in test [9], 4.51 µM (inactive); in [10] it was 5.42 µM (inactive); in [11], 6.95 µM (inactive); in test [12] it was 1.84 µM (inactive). Also, the GI50 in test [13] was 15.5 µM (inactive); in test [14], 3.3 µM (inactive); in test [15], 12 µM (inactive); in test [16] it was 8.81 µM (inactive); in test [17], 7.43 µM (inactive); in test [18], 3.9 µM (inactive). The GI50 in test [19] was 3.43 µM (inactive); in test [20], 5.35 µM (inactive).

For `CCOP(=O)(OCC)C(=C1C=C(C(C)(C)C)C(=O)C(C(C)(C)C)=C1)P(=O)(OCC)OCC`, the GI50 in test [1] was > 10 µM (inactive); in test [2] it was 1.14 µM (inactive); in [3], 1.98 µM (inactive); in test [4], > 7.76 µM (inactive); in test [5] it was > 10 µM (inactive); in test [6], > 10 µM (inactive). In addition, the GI50 in [7] was > 6.84 µM (inactive); in [8] it was > 5.24 µM (inactive); in test [9], 2.89 µM (inactive); in [10], 2.27 µM (inactive); in [11], > 10 µM (inactive); in test [12] it was 2.41 µM (inactive). Also, the GI50 in test [13] was > 10 µM (inactive); in test [14], > 10 µM (inactive); in test [15], > 10 µM (inactive); in [16], 5.08 µM (inactive); in test [17], > 10 µM (inactive); in test [18], > 10 µM (inactive). Further, the GI50 in test [19] and in [20] was > 10 µM (inactive) throughout.

On to `CCOC(=O)C1=NN(c2ccc(C)cc2)C2(c3ccccc3)C=C(c3ccccc3)N(C)CCN12` (stereo not given), for which the GI50 in test [1] was > 100 µM (inactive); in test [2], > 100 µM (inactive); in [3], > 100 µM (inactive); in [4], > 100 µM (inactive); in test [5], 82.4 µM (inactive); in [6], > 100 µM (inactive). For the same compound, the GI50 in test [7], in test [8], in test [9], in test [10], in [11] and in test [12] was > 100 µM (inactive) throughout. The GI50 in [13] is > 100 µM (inactive); in test [14], > 100 µM (inactive); in [15], > 100 µM (inactive); in [16], 29 µM (inactive); in [17] it was > 100 µM (inactive); in test [18] it was > 100 µM (inactive). Further, the GI50 in [19] and in test [20] was > 100 µM (inactive) each time.

With `Oc1cc(O)c2c(c1)OC(c1ccc(O)c(O)c1)C(OC1(c3cc(O)c(O)c(O)c3)Oc3cc(O)cc(O)c3C(O)C1O)C2` (stereo not given), the GI50 was > 34.1 µM (inactive) in test [1]; 15.1 µM (inactive) in [2]; 31.8 µM (inactive) in test [3]; 15.6 µM (inactive) in [4]; 62.8 µM (inactive) in test [5]; 18.3 µM (inactive) in test [6]. Moreover, the GI50 in [7] was 19.6 µM (inactive); in test [8] it was 15.7 µM (inactive); in [9], 23.5 µM (inactive); in test [10], 21.4 µM (inactive); in [11] it was 30.2 µM (inactive); in test [12], 35.6 µM (inactive). Moreover, the GI50 was 21.8 µM (inactive) in [13]; 26 µM (inactive) in [14]; 49.7 µM (inactive) in [15]; 22.1 µM (inactive) in [16]; 25.9 µM (inactive) in [17]; 20.8 µM (inactive) in [18]. The values for the GI50 in [19] and in test [20] were 55.1 µM (inactive) and 20.8 µM (inactive), respectively.

Turning to `Cn1c2ccccc2c(=S)c2ccccc21`, the GI50 in [1], in [2], in [3], in test [4], in [5] and in test [6] was > 100 µM (inactive) throughout. Also, the GI50 in [7], in test [8], in test [9], in test [10], in test [11] and in [12] was > 100 µM (inactive) each time. In addition, the GI50 in test [13], in test [14], in test [15], in test [16], in test [17] and in test [18] was > 100 µM (inactive) in each case. For the same compound, the GI50 in [19] and in [20] was > 100 µM (inactive) each time.

As for `CC(C)=CCC[C@](C)(O[C@@H]1O[C@H](CO)[C@@H](O)[C@H](O)[C@H]1O)[C@H]1CC[C@]2(C)[C@@H]1[C@H](O)C[C@@H]1[C@@]3(C)CC[C@H](O)C(C)(C)[C@@H]3[C@@H](O[C@@H]3O[C@H](CO)[C@@H](O)[C@H](O)[C@H]3O[C@@H]3O[C@@H](C)[C@H](O)[C@@H](O)[C@H]3O)C[C@]12C.CC(C)=CCC[C@](C)(O[C@@H]1O[C@H](CO)[C@@H](O)[C@H](O)[C@H]1O)[C@H]1CC[C@]2(C)[C@@H]1[C@H](O)C[C@@H]1[C@@]3(C)CC[C@H](O)C(C)(C)[C@@H]3[C@@H](O[C@@H]3O[C@H](CO)[C@@H](O)[C@H](O)[C@H]3O[C@@H]3O[C@H](CO)[C@@H](O)[C@H](O)[C@H]3O)C[C@]12C`, the GI50 in [1], in test [2], in [3], in test [4], in test [5] and in [6] was > 75 µM (inactive) in each case. In addition, the GI50 in [7], in test [8], in test [9], in [10], in test [11] and in test [12] was > 75 µM (inactive) throughout. Also, the GI50 is > 75 µM (inactive) in [13]; 34.9 µM (inactive) in test [14]; > 75 µM (inactive) in test [15]; > 75 µM (inactive) in [16]; 54.3 µM (inactive) in [17]; > 75 µM (inactive) in test [18]. For the same compound, the GI50 in test [19] and in test [20] was > 75 µM (inactive) each time.
